Laboratory results published in patent US11406648B2, “C17-heteroaryl derivatives of oleanolic acid and methods of use thereof” (REATA PHARMACEUTICALS, INC., priority 2012, dated 2022).
pIC50: −log10 of the molar value.

The molecules below were run on RAW264.7 mouse macrophages (assay: Suppression of IFNγ-induced NO production (Nitric Oxide Production and Cell Viability Assay)). Conditions: IFNγ-induced NO production, Griess reagent, normalized to cell viability, 2 h pre-treatment, IFNγ 24 h.
Type: cell-based
Description: Assay results for the suppression of IFNγ-induced NO production are shown for several of the compounds of the present invention in Table 1 below. […] Details regarding this assay are provided in the Examples section below. Nitric Oxide Production and Cell Viability Assay. RAW264.7 mouse macrophages were plated in 96-well plates at 30,000 cells/well in triplicate in RPMI1640+0.5% FBS and incubated at 37° C. with 5% CO2. On the next day, cells were pre-treated with DMSO or drug (0-200 nM dose range) for 2 hours, and then treated with recombinant mouse IFNγ (R&D Systems) for 24 hours. Nitric Oxide concentration in media was determined using the Griess reagent system (Promega). Cell viability was determined using WST-1 reagent (Roche). IC50 values were determined based on the suppression of IFNγ induced Nitric Oxide production normalized to cell viability.
`Cc1nnc([C@]23CCC(C)(C)C[C@H]2[C@H]2C(=O)C=C4[C@@]5(C)C=C(C#N)C(=O)C(C)(C)[C@@H]5CC[C@@]4(C)[C@]2(C)CC3)o1` [TX63384] gave a pIC50 of 8.70.
In the case of `CCCc1nnc([C@]23CCC(C)(C)C[C@H]2[C@H]2C(=O)C=C4[C@@]5(C)C=C(C#N)C(=O)C(C)(C)[C@@H]5CC[C@@]4(C)[C@]2(C)CC3)o1` [TX63475], the pIC50 was 8.24.
Work on `CC(C)c1nnc([C@]23CCC(C)(C)C[C@H]2[C@H]2C(=O)C=C4[C@@]5(C)C=C(C#N)C(=O)C(C)(C)[C@@H]5CC[C@@]4(C)[C@]2(C)CC3)o1` [TX63476] yielded a pIC50 of 8.27.
`CC1(C)CC[C@]2(c3nnc(C4CC4)o3)CC[C@]3(C)[C@H](C(=O)C=C4[C@@]5(C)C=C(C#N)C(=O)C(C)(C)[C@@H]5CC[C@]43C)[C@@H]2C1` [TX63477] was tested, and the pIC50 was 8.48.
`COCc1nnc([C@]23CCC(C)(C)C[C@H]2[C@H]2C(=O)C=C4[C@@]5(C)C=C(C#N)C(=O)C(C)(C)[C@@H]5CC[C@@]4(C)[C@]2(C)CC3)o1` [TX63478] gave a pIC50 of 8.74.
`CC1(C)CC[C@]2(c3nnco3)CC[C@]3(C)[C@H](C(=O)C=C4[C@@]5(C)C=C(C#N)C(=O)C(C)(C)[C@@H]5CC[C@]43C)[C@@H]2C1` [TX63479] gave a pIC50 of 8.96.
Molecule `Cc1noc([C@]23CCC(C)(C)C[C@H]2[C@H]2C(=O)C=C4[C@@]5(C)C=C(C#N)C(=O)C(C)(C)[C@@H]5CC[C@@]4(C)[C@]2(C)CC3)n1` [TX63501] has a pIC50 of 9.00.
Molecule `Cc1nnc(C[C@]23CCC(C)(C)C[C@H]2[C@H]2C(=O)C=C4[C@@]5(C)C=C(C#N)C(=O)C(C)(C)[C@@H]5CC[C@@]4(C)[C@]2(C)CC3)o1` [TX63593] has a pIC50 of 8.77.
